We go through 16 compounds from EP1712550A2, “Substituted triazole diamine derivatives as kinase inhibitors” (priority 2000, dated 2002).

Some results are limits rather than exact numbers.

For one test, the target named is T1, CDK1:Cyclin-B (Homo sapiens, UniProt P06493).
T1 construct: purchased New England Biolabs, Beverly, MA 6020; host or cells: insect cells
Description: CDK1 Screening Assay. The format is biochemical. Particulars: read-out: Kinase Assay (IC50 uM) CDK1. As to the method: (§1) 70 µL of the kinase reaction mixture was dispensed into the well of a streptavidin coated FlashPlate™ (Cat. # SMP103, NEN, Boston, MA). Then 1 µL of test compound stock in 100% DMSO was added to the wells resulting in a final concentration of 1% DMSO in the reaction with a 100 µl final reaction volume. Next, CDK1:Cyclin-B protein was diluted in 50 mM Tris-HCl pH=8.0, 0.1% BSA at a concentration of 1 ng per µL and 30 µl (30ng enzyme per test well) was added to each well to initiate the reaction. The reaction was incubated for one hour at 30°C. At the end of the 1-hour incubation, the reaction was terminated by aspirating the reaction mixture from the plate and washing the wells twice with PBS containing 100 mM EDTA. The histone-H1 biotinylated peptide substrate became immobilized on the Flashplate™ and the incorporation of ^33P-γ-ATP was measured by reading the plate on a scintillation counter. Inhibition of the enzymatic activity of CDK1 was measured by observing a reduced amount of ^33P-γ-ATP incorporated into the immobilized peptide. […]

Test [1] has as its target T2, VEGF-R (vascular endothelial growth factor receptor-2) (Rattus norvegicus, UniProt O08775).
T2 construct: 6xHis (polyhistidine) (N)
The experiment in a line: VEGF-R Screening Assay. The format is biochemical. Conditions: read-out: Kinase Assay (IC50 uM) VEGF-R. How it is done: as §1, with “a 100 µL final reaction” for “a 100 µl final reaction”, “volume. Next, soluble rat tyrosine kinase containing an N-terminal 6XHIS tag was diluted” for “volume. Next, CDK1:Cyclin-B protein was diluted”, “concentration of 5 ng per” for “concentration of 1 ng per”, “and 30 µL (150 ng enzyme per” for “and 30 µl (30ng enzyme per”, “EDTA. The PLC1 biotinylated peptide” for “EDTA. The histone-H1 biotinylated peptide”, “activity of the VEGF-R was measured” for “activity of CDK1 was measured”

Test [2] concerns the target T3, HER2 (human epidermal growth factor receptor-2) (Homo sapiens, UniProt P04626).
T3 construct: begins at amino acid 676 followed by the remainder of the HER2 cytoplasmic domain; polyhistidine (N)
Description: Kinase Selectivity Assay HER2. The format is biochemical. Conditions: read-out: Kinase Assay (IC50 uM) HER2 Kinase.

Test [3] addresses T4, EGFR (epidermal growth factor receptor) (Homo sapiens, UniProt P00533).
T4 construct: is purified from human A431 cell membranes (Sigma, St. Louis, MO, Cat.# E3641); purchased Sigma, St. Louis, MO E3641; host or cells: human A431 cell membranes (endogenous protein)
The experiment in a line: Kinase Selectivity Assay EGF-R. It is filed as biochemical. Particulars: read-out: Kinase Assay (IC50 uM) EGF-R.

Test [4] relates to PC-3 prostate adenocarcinoma. The experiment in a line: Inhibition of Cell Proliferation, 14C-thymidine incorporation, PC-3. It is filed as cell-based. Conditions: Cell Line PC-3. How it is done:
(§2) The ability of a test compound to inhibit the proliferation of cell growth was determined by measuring incorporation of ^14C-labelled thymidine into newly synthesized DNA within the cells. This method was used on cell lines derived from carcinomas originating from several tissues such as HeLa cervical adenocarcinoma (American Type Culture Collection (ATCC), Virginia, Cat. #CCL-2), A375 malignant melanoma (ATCC CRL-1619), SK-OV-3 ovarian adenocarcinoma (ATCC HTB-77) HCT-116 colon carcinoma (CCL-247), PC-3 prostate adenocarcinoma (ATCC CRL-1435), and MDA-MB-231 (Xenogen Corp.) In this way the effect of a compound on cell growth of cells with many different phenotypes can be determined. Cells were trypsinized and counted and 3000-8000 cells were added to each well of a 96-well CytoStar tissue culture treated scintillating microplate (Amersham #RPNQ0160) in complete medium in a volume of 100 µl. Cells were incubated for 24 hours in complete medium at 37°C in an atmosphere containing 5% CO2. Next, 1 µl of test compound in 100% DMSO was added to the wells of the plate. DMSO only was added to control wells. Cells were incubated for 24 more hours in complete medium at 37°C in an atmosphere containing 5% CO2. Methyl^14C-thymidine 56 mCi/mmol (NEN #NEC568 or Amersham #CFA532) was diluted in complete medium and 0.2 uCi/well was added to each well of the CytoStar plate in a volume of 20 ul. The plate was incubated for 24 hours at 37°C plus 5% CO2 in drug plus ^14C-thymidine. The contents of the plate were discarded into a ^14C radioactive waste container by inverting the plate and the plate was washed twice with 200 µl PBS. 200 µl of PBS is added to each well. The top of the plate was sealed with a transparent plate sealer and a white plate backing sealer (Packard #6005199) was applied to the bottom of the plate. The degree of methyl ^14C-thymidine incorporation was quantified on a Packard Top Count.
For orientation: Uptake of a labelled nucleoside into DNA is a usual measure of proliferation.

Test [5] relates to HeLa cervical adenocarcinoma. The experiment in a line: Inhibition of Cell Proliferation, 14C-thymidine incorporation, HeLa. The format is cell-based. Conditions: Homo sapiens; Cell Line HeLa. As to the method: as §2
For the next test, the system named is A375 malignant melanoma. Description: Inhibition of Cell Proliferation, 14C-thymidine incorporation, A375. It is filed as cell-based. Conditions: Homo sapiens, A-375; Cell Line A375. How it is done:
as §2

The subject of another test is HCT-116 colon carcinoma. The experiment in a line: Inhibition of Cell Proliferation, 14C-thymidine incorporation, HCT-116. The format is cell-based. Conditions: Homo sapiens; Cell Line HCT-116. As to the method: as §2

T3 sequence (P04626 676-1255 limits assumed): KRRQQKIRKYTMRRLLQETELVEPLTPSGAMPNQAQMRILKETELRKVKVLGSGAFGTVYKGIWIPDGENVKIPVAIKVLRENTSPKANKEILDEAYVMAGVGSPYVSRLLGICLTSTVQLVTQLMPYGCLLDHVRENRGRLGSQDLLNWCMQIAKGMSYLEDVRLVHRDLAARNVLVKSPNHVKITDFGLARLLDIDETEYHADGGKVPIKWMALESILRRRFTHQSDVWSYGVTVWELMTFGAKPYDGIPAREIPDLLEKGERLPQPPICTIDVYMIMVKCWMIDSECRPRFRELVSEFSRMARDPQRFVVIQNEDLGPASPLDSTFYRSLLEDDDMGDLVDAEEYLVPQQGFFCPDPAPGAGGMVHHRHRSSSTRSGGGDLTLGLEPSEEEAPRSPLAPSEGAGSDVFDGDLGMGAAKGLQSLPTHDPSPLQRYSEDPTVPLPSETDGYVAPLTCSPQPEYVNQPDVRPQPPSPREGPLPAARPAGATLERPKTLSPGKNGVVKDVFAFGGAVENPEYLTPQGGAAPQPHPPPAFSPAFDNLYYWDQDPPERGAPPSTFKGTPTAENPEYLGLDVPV
T2 sequence (O08775 786-1343): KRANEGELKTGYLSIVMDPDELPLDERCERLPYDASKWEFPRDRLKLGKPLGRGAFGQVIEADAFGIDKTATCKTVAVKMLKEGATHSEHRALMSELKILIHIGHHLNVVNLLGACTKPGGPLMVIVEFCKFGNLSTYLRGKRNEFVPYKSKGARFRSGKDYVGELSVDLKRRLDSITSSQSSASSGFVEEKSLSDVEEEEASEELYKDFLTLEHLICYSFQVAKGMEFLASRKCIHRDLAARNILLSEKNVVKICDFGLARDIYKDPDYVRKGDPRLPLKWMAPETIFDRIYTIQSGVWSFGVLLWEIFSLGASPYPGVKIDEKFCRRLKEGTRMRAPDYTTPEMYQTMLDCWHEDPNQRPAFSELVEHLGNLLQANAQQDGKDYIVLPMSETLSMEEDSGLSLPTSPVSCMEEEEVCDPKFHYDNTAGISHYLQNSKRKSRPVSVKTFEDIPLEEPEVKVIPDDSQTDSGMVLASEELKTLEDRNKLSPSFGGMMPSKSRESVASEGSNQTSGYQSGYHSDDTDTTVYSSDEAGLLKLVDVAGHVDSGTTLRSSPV
T1 sequence (P06493 whole entry): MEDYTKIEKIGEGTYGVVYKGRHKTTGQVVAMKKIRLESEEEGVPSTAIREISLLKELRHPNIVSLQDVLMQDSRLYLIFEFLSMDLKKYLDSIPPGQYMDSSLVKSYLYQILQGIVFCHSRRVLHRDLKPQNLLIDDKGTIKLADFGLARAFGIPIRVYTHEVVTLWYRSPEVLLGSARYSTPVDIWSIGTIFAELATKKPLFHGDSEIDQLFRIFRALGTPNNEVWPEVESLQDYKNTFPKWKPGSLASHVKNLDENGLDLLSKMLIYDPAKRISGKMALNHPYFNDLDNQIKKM
T1 sequence (P14635 whole entry partner): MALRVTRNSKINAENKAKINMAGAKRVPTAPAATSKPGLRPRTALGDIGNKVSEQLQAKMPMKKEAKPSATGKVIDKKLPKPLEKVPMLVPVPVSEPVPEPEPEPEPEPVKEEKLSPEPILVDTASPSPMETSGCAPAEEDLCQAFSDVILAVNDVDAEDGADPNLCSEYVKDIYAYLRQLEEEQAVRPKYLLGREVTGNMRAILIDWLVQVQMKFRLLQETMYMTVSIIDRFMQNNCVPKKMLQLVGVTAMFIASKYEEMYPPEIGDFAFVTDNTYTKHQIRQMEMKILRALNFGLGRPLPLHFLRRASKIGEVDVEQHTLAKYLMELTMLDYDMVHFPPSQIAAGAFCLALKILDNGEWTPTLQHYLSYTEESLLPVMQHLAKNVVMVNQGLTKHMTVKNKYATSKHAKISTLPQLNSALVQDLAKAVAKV
T4 sequence (P00533 25-1210): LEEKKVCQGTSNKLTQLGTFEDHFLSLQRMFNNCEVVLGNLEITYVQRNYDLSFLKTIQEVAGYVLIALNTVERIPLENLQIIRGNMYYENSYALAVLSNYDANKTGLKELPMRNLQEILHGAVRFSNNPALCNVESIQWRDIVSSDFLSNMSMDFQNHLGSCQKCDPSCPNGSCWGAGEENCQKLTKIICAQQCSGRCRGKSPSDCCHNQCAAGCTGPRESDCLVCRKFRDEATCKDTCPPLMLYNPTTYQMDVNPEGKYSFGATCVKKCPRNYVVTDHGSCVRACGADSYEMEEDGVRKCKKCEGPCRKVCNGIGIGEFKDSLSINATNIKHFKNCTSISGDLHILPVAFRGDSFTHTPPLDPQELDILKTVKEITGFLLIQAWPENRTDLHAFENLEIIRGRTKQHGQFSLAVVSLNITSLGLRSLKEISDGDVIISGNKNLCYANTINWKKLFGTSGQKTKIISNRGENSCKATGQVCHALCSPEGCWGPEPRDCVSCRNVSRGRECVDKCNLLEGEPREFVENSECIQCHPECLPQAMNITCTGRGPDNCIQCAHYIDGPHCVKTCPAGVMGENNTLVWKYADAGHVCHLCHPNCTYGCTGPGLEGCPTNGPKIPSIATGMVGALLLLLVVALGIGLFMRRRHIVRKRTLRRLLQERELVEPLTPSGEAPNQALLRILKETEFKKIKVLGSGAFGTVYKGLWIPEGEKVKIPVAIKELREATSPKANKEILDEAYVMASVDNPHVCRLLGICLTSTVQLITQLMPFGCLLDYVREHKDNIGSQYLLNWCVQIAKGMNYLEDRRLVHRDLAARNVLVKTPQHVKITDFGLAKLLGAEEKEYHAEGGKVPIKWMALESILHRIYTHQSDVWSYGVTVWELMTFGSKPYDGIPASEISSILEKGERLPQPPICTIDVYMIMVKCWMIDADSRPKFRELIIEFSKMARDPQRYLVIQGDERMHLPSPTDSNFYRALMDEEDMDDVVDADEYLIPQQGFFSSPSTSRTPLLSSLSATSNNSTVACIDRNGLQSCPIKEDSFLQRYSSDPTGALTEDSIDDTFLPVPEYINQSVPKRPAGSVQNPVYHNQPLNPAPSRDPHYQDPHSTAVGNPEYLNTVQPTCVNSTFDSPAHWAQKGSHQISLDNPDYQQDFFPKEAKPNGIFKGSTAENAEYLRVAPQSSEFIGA

`CNS(=O)(=O)c1ccc(Nc2nc(N)n(C(=O)c3c(F)ccc(C)c3F)n2)cc1` [Cpd 81, 4-[[5-amino-1-(2,6-difluoro-3-methylbenzoyl)-1H-1,2,4-triazol-3-yl]amino]-N-methyl-benzenesulfonamide]: the IC50 on CDK1:Cyclin-B is 0.018 µM; in test [1], 0.482 µM; in test [2] it was 1.7 µM; in test [3], over 100 µM.

With `CNS(=O)(=O)c1ccc(Nc2nc(N)n(C(=O)c3sc(C)cc3C)n2)cc1` [Cpd 83, 4-[[5-amino-1-[(3,5-dimethyl-2-thienyl)carbonyl]-1H-1,2,4-triazol-3-yl]amino]-N-methyl-benzenesulfonamide], the half-inhibitory concentration (IC50) is 0.008 µM at CDK1:Cyclin-B, 0.04 µM in test [1] and over 100 µM in test [3].

For the compound `Cc1ccc(F)c(C(=O)n2nc(Nc3ccc(S(N)(=O)=O)cc3)nc2N)c1Cl` [Cpd 69, 4-[[5-amino-1-(2-chloro-6-fluoro-3-methylbenzoyl)-1H-1,2,4-triazol-3-yl]amino]-benzenesulfonamide], the IC50 in test [1] is 0.685 µM; in test [2], 0.139 µM; in test [3], over 100 µM; in test [4], 8 nM.

Turning to `Nc1nc(Nc2ccc(N3CCCS3(=O)=O)cc2)nn1C(=O)c1c(F)cccc1F` [Cpd 117, 1-(2,6-difluorobenzoyl)-N^3-[4-(1,1-dioxido-2-isothiazolidinyl)phenyl]-1H-1,2,4-triazole-3,5-diamine], the IC50 at CDK1:Cyclin-B was 0.035 µM; in test [2], 5.44 µM; in test [3], over 100 µM.

With `Cc1ccsc1C(=O)n1nc(Nc2ccc(S(N)(=O)=O)cc2)nc1N` [Cpd 15, 4-[[5-amino-1-[(3-methyl-2-thienyl)carbonyl]-1H-1,2,4-triazol-3-yl]amino]-benzenesulfonamide], the IC50 in test [5] amounted to 91 nM; in the test on A375 malignant melanoma, 247 nM; with HCT-116 colon carcinoma, 127 nM; in test [4] it was 107 nM.

`Cc1ccsc1C(=O)n1nc(Nc2ccc(S(=O)(=O)Nc3ccccn3)cc2)nc1N` [Cpd 121, 4-[[5-amino-1-[(3-methyl-2-thienyl)carbonyl]-1H-1,2,4-triazol-3-yl]amino]-N-(2-pyridinyl)-benzenesulfonamide]: the IC50 was 0.099 µM on CDK1:Cyclin-B, 0.027 µM in test [1], 0.717 µM in test [2] and over 10 µM in test [3].

On to `Cc1ccsc1C(=O)n1nc(Nc2ccc(NS(C)(=O)=O)cc2)nc1N` [Cpd 109, N-[4-[[5-amino-1-[(3-methyl-2-thienyl)carbonyl]-1H-1,2,4-triazol-3-yl]amino]phenyl]-methanesulfonamide], for which the IC50 on CDK1:Cyclin-B was 0.147 µM; in test [1] it was 0.025 µM; in test [2] it was 0.17 µM; in test [3], over 100 µM.

With `Cc1cc(C)c(C(=O)n2nc(Nc3ccc(S(=O)(=O)NCCN(C)C)cc3)nc2N)s1` [Cpd 107, 4-[[5-amino-1-[(3,5-dimethyl-2-thienyl)carbonyl]-1H-1,2,4-triazol-3-yl]amino]-N-[2-(dimethylamino)ethyl]-benzenesulfonamide], the IC50 on CDK1:Cyclin-B is 0.014 µM; in test [1], 0.032 µM; in test [2] it was 0.03 µM; in test [3], 0.936 µM.

With `Nc1nc(Nc2ccc(S(N)(=O)=O)cc2)nn1C(=O)C1CCCC1` [Cpd 38, 4-[[5-amino-1-(cyclopentylcarbonyl)-1H-1,2,4-triazol-3-yl]amino]-benzenesulfonamide], the IC50 on CDK1:Cyclin-B was 0.029 µM; in test [1], 0.88 µM; in test [3] it was over 100 µM.

`Nc1nc(Nc2ccc(N3CCNC3=O)cc2)nn1C(=O)c1c(F)cccc1F` [Cpd 115, 1-[4-[[5-axnino-1-(2,6-difluorobenzoyl)-1H-1,2,4-triazol-3-yl]amino]phenyl]-2-imidazolidinone]: the IC50 on CDK1:Cyclin-B is 0.313 µM; in test [1], 0.467 µM; in test [2], 1.44 µM; in test [3], over 10 µM.

With `Cc1ccc(F)c(C(=O)n2nc(Nc3ccc(S(=O)(=O)NCCN(C)C)cc3)nc2N)c1F` [Cpd 105, 4-[[5-amino-1-(2,6-difluoro-3-methylbenzoyl)-1H-1,2,4-triazol-3-yl]amino]-N-[2-(dimethylamino)ethyl]-benzenesulfonamide], the IC50 on CDK1:Cyclin-B worked out at 0.046 µM; in test [1], 0.276 µM; in test [2], 0.845 µM; in test [3] it was 9.6 µM.

For `CCc1ccc(C(=O)n2nc(Nc3ccc(NS(C)(=O)=O)cc3)nc2N)s1` [Cpd 110, N-[4-[[5-amino-1-[(5-ethyl-2-thienyl)carbonyl]-1H-1,2,4-triazol-3-yl]amino]phenyl]-methanesulfonamide], the IC50 at CDK1:Cyclin-B was 0.022 µM; in test [1], 0.014 µM; in test [3], over 10 µM.

In the case of `Nc1nc(Nc2ccc(S(N)(=O)=O)cc2)nn1C(=S)Nc1c(F)cccc1F` [Cpd 66, 5-amino-3-[[4-(aminosulfonyl)phenyl]amino]-N-(2,6-difluorophenyl)-1H-1,2,4-triazole-1-carbothioamide], the IC50 in test [5] stood at 35 nM; in the test on A375 malignant melanoma it was 92 nM; with HCT-116 colon carcinoma, 20 nM.

On to `Nc1nc(Nc2ccc(S(N)(=O)=O)cc2)n(C(=S)Nc2c(F)cccc2F)n1` [Cpd 128, 3-amino-5-[[4-(aminosulfonyl)phenyl]amino]-N-(2,6-difluorophenyl)-1H-1,2,4-triazole-1-carbothioamide], for which the IC50 in test [2] was 0.11 µM; in test [3], over 100 µM; in test [5], 128 nM; in the test on A375 malignant melanoma it was 968 nM; in the test on HCT-116 colon carcinoma, 910 nM.

For `Cc1ccc(F)c(C(=O)n2nc(Nc3ccc(N4CCNC4=O)cc3)nc2N)c1F` [Cpd 114, 1-[4-[[5-amino-1-(2,6-difluoro-3-methylbenzoyl)-1H 1,2,4-triazol-3-yl]amino]phenyl]-2-imidazolidinone], the IC50 was 0.228 µM at CDK1:Cyclin-B, 0.313 µM in test [1], 1.39 µM in test [2] and over 100 µM in test [3].

Consider `Nc1nc(Nc2ccc(S(N)(=O)=O)cc2)nn1C(=O)C1CCCCC1` [Cpd 39, 4-[[5-amino-1-(cyclohexylcarbonyl)-1H-1,2,4-triazol-3-yl]amino]-benzenesulfonamide], for which the IC50 on CDK1:Cyclin-B was 0.012 µM; in test [1] it was 0.334 µM; in test [3] it was over 100 µM.

The IC50 is the midpoint of a concentration-inhibition curve.
